# From ChEMBL document CHEMBL1201862, “PubChem BioAssay data set” (2004)
#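 Method: 48-hour compound exposure of cells in 96-well plates, five concentrations, linear interpolation of endpoints. The concentration for 50% growth inhibition is given as GI50.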 The source made the active and inactive calls. Rule as the data show it: active = GI50 up to about 1.1 µM and inactive = higher. Where a SMILES comes first, the peptide text is derived from it. [ ]: non-standard residue; d: D form. The star is where a group is joined. mTyr = N[CH](Cc1cccc(O)c1)C(=O)O; Cbz = O=C(OCc1ccccc1)*; OBn = c1ccc(CO*)cc1
# Columns and labels:
# Test in all cases: growth of human tumour cells (NCI), 48 h
# HCT-15 = test system: HCT-15
# MDA-MB-435 = test system: MDA-MB-435
# T47D = test system: T47D
# NCI-H460 = test system: NCI-H460
# SK-MEL-28 = test system: SK-MEL-28
# CAKI-1 = test system: CAKI-1
# MDA-N = test system: MDA-N
# KM12 = test system: KM12
# PC-3 = test system: PC-3
# SK-MEL-2 = test system: SK-MEL-2
# NCI/ADR-RES = test system: NCI/ADR-RES
# NCI-H23 = test system: NCI-H23
# BT-549 = test system: BT-549
# A549 = test system: A549
# HCT-116 = test system: HCT-116
# HCC 2998 = test system: HCC 2998
# U-251 = test system: U-251
# HOP-92 = test system: HOP-92
# RXF 393 = test system: RXF 393
Structure (SMILES),GI50 (HCT-15) [µM],GI50 (MDA-MB-435),GI50 (T47D),GI50 (NCI-H460),GI50 (SK-MEL-28),GI50 (CAKI-1),GI50 (MDA-N),GI50 (KM12),GI50 (PC-3),GI50 (SK-MEL-2),GI50 (NCI/ADR-RES),GI50 (NCI-H23),GI50 (BT-549),GI50 (A549),GI50 (HCT-116),GI50 (HCC 2998),GI50 (U-251),GI50 (HOP-92),GI50 (RXF 393)
CCCCCCn1c(SC)nc(COC(=O)NC)c1COC(=O)NC,32.4,19.7 µM (inactive),17.7 µM (inactive),18.1 µM (inactive),17.7 µM (inactive),15.7 µM (inactive),19.2 µM (inactive),18.2 µM (inactive),15.1 µM (inactive),25.8 µM (inactive),25.5 µM (inactive),21.2 µM (inactive),19.5 µM (inactive),16.4 µM (inactive),17.8 µM (inactive),,,,
C=C1CC(COc2ccc3c(C)c(Cl)c(=O)oc3c2)(c2ccccc2)OC1=O (stereo not given),2.26,2.45 µM (inactive),2.04 µM (inactive),8 µM (inactive),2.11 µM (inactive),1.37 µM (inactive),2.07 µM (inactive),2.48 µM (inactive),1.9 µM (inactive),1.75 µM (inactive),2.97 µM (inactive),1.57 µM (inactive),1.53 µM (inactive),11.9 µM (inactive),1.01 µM (active),1.71 µM (inactive),8.15 µM (inactive),1.47 µM (inactive),
COC(=O)C(Cc1cccc(O)c1)NC(=O)C(CC(=O)OCc1ccccc1)NC(=O)OCc1ccccc1 (stereo not given) (Cbz-Asp(OBn)-[mTyr]-OMe; configuration not given here),> 100,,15.9 µM (inactive),15.4 µM (inactive),> 100 µM (inactive),,> 100 µM (inactive),> 100 µM (inactive),> 100 µM (inactive),> 100 µM (inactive),,> 100 µM (inactive),> 100 µM (inactive),> 100 µM (inactive),> 100 µM (inactive),> 100 µM (inactive),> 100 µM (inactive),29.1 µM (inactive),> 100 µM (inactive)
CCn1c2ccccc2c2ccc(C3C(C(=O)OC)=C(C)NC(C)=C3C(=O)OC)cc21,46.3,45.6 µM (inactive),63.8 µM (inactive),35.5 µM (inactive),70.1 µM (inactive),31 µM (inactive),37.8 µM (inactive),33.7 µM (inactive),,,38.5 µM (inactive),56 µM (inactive),49.3 µM (inactive),46.6 µM (inactive),43.7 µM (inactive),42.5 µM (inactive),67.8 µM (inactive),,15.4 µM (inactive)
COc1ccc(-c2c(N)n(-c3cccc(C(=O)O)c3)c(=O)c3cc([N+](=O)[O-])ccc23)cc1,> 100,> 100 µM (inactive),> 100 µM (inactive),> 100 µM (inactive),> 100 µM (inactive),> 100 µM (inactive),> 100 µM (inactive),> 100 µM (inactive),> 100 µM (inactive),> 100 µM (inactive),> 100 µM (inactive),> 100 µM (inactive),> 100 µM (inactive),> 100 µM (inactive),> 100 µM (inactive),> 100 µM (inactive),> 100 µM (inactive),,> 100 µM (inactive)
O=C(NCCN1CCOCC1)c1cn2c(ccc3sc4ccccc4c(=O)c32)n1,10.3,16.4 µM (inactive),,4.02 µM (inactive),46.9 µM (inactive),> 100 µM (inactive),28.3 µM (inactive),> 100 µM (inactive),20.1 µM (inactive),,20.6 µM (inactive),20.7 µM (inactive),27.8 µM (inactive),4.62 µM (inactive),5.22 µM (inactive),10.1 µM (inactive),10 µM (inactive),12.8 µM (inactive),22 µM (inactive)
CO/N=C(\C)CCC#Cc1ccccc1C(=O)OC,> 10,> 10 µM (inactive),> 10 µM (inactive),> 10 µM (inactive),> 10 µM (inactive),> 10 µM (inactive),> 10 µM (inactive),> 10 µM (inactive),> 10 µM (inactive),> 10 µM (inactive),> 10 µM (inactive),> 10 µM (inactive),> 10 µM (inactive),> 10 µM (inactive),> 10 µM (inactive),> 10 µM (inactive),> 10 µM (inactive),,> 10 µM (inactive)
COc1ccccc1NC(=O)C(C#N)=C(SC)SC,> 100,> 100 µM (inactive),30.2 µM (inactive),94.2 µM (inactive),> 100 µM (inactive),61 µM (inactive),> 100 µM (inactive),6.78 µM (inactive),> 100 µM (inactive),> 100 µM (inactive),,> 100 µM (inactive),> 100 µM (inactive),> 100 µM (inactive),> 100 µM (inactive),> 100 µM (inactive),> 100 µM (inactive),32.3 µM (inactive),> 100 µM (inactive)
CCOC(=O)c1ccc(-n2cnc(-c3ccc([N+](=O)[O-])cc3)c2)cc1,> 100,> 100 µM (inactive),95.7 µM (inactive),> 100 µM (inactive),> 100 µM (inactive),> 100 µM (inactive),> 100 µM (inactive),> 100 µM (inactive),> 100 µM (inactive),> 100 µM (inactive),> 100 µM (inactive),82.6 µM (inactive),36.5 µM (inactive),> 100 µM (inactive),31.4 µM (inactive),> 100 µM (inactive),25.2 µM (inactive),,
COC(=O)CNC(=O)Nc1cc(N2C(=O)ON3C2C(C)(C)N(O)C3(C)C)ccc1C (stereo not given),66.5,> 100 µM (inactive),> 100 µM (inactive),> 100 µM (inactive),> 100 µM (inactive),> 100 µM (inactive),> 100 µM (inactive),> 100 µM (inactive),> 100 µM (inactive),59.4 µM (inactive),> 100 µM (inactive),> 100 µM (inactive),> 100 µM (inactive),> 100 µM (inactive),> 100 µM (inactive),> 100 µM (inactive),> 100 µM (inactive),,> 100 µM (inactive)
O=C(O)CC[N+]1=CCC(c2ccccc2)(c2ccccc2)O1,> 100,> 100 µM (inactive),> 100 µM (inactive),> 100 µM (inactive),> 100 µM (inactive),> 100 µM (inactive),> 100 µM (inactive),,> 100 µM (inactive),> 100 µM (inactive),,> 100 µM (inactive),> 100 µM (inactive),> 100 µM (inactive),> 100 µM (inactive),> 100 µM (inactive),> 100 µM (inactive),> 100 µM (inactive),> 100 µM (inactive)
C/C(=N\N=C(/S)SCc1ccccc1)c1ccccn1,< 0.01,1.02 µM (active),,0.26 µM (active),,< 0.0504 µM (active),0.971 µM (active),0.266 µM (active),< 0.01 µM (active),1.27 µM (inactive),< 0.01 µM (active),< 0.01 µM (active),1.13 µM (inactive),0.17 µM (active),< 0.01 µM (active),0.0476 µM (active),< 0.0192 µM (active),< 0.0105 µM (active),1.28 µM (inactive)
O=C(CNc1ccc(Cl)cc1Cl)NC1C=Cc2ccc(S(=O)(=O)Nc3ccc(Cl)cc3Cl)cc2C1=O (stereo not given),> 100,> 100 µM (inactive),,> 100 µM (inactive),> 100 µM (inactive),> 100 µM (inactive),> 100 µM (inactive),> 100 µM (inactive),> 100 µM (inactive),> 100 µM (inactive),> 100 µM (inactive),> 100 µM (inactive),> 100 µM (inactive),> 100 µM (inactive),> 100 µM (inactive),> 100 µM (inactive),> 100 µM (inactive),> 100 µM (inactive),
C/C1=C\CC[C@@]2(C)O[C@@H]2C[C@@H](C2(C)CO2)CC/C(C)=C/CC1 (stereo not given in full),10.3,20.6 µM (inactive),32.5 µM (inactive),19.1 µM (inactive),21.7 µM (inactive),19.6 µM (inactive),25.6 µM (inactive),17.5 µM (inactive),22 µM (inactive),27.9 µM (inactive),20.4 µM (inactive),19.4 µM (inactive),21.2 µM (inactive),16.1 µM (inactive),20.4 µM (inactive),15 µM (inactive),15.4 µM (inactive),33.7 µM (inactive),
CC[C@@]1(O)C[C@H](OC2CC(N(C)C)C(OC3CC(O)C(OC4CCC(=O)C(C)O4)C(C)O3)C(C)O2)c2c(cc3c(c2O)C(=O)c2c(O)ccc(O)c2C3=O)[C@H]1C(=O)OC (stereo not given in full),9.75e-05,0.000929 µM (active),0.000773 µM (active),2.33e-05 µM (active),0.000343 µM (active),< 1e-05 µM (active),0.000427 µM (active),8.77e-05 µM (active),0.000395 µM (active),7.87e-05 µM (active),,0.00157 µM (active),0.00113 µM (active),6.7e-05 µM (active),2.32e-05 µM (active),,6.35e-05 µM (active),0.0008 µM (active),0.000344 µM (active)
Nc1cc(OCC2CCCCC2)nc(N)n1,> 100,> 100 µM (inactive),,> 100 µM (inactive),> 100 µM (inactive),> 100 µM (inactive),> 100 µM (inactive),> 100 µM (inactive),> 100 µM (inactive),> 100 µM (inactive),> 100 µM (inactive),84.5 µM (inactive),> 100 µM (inactive),93.8 µM (inactive),> 100 µM (inactive),> 100 µM (inactive),> 100 µM (inactive),> 100 µM (inactive),> 100 µM (inactive)
